The nature of data set [1]: In vitro percutaneous study (Franz diffusion cells, aqueous cream). Type of data set: in vitro ADME, human. To be noted: 1.0% w/w in aqueous cream pH=6, 5 mg/cm^2, human skin from three donors. From the text: The in vitro percutaneous study is aimed to predict the level of percutaneous penetration obtained for a compound in a topical formulation for psoriasis. This assay coupled with the intrinsic potency of the compound are used to predict the likelihood of success of a compound to engage the target. The higher the ratio of the percutaneous penetration to the intrinsic potency, the higher the ratio of local skin concentration to the intrinsic potency and therefore the higher the chance of a compound to engage the target in a topical formulation.
The compounds were manufactured in a modified aqueous cream at pH=6.
The study was conducted with dermatomed abdominal human skin sourced from three skin donors using 2 cm2 Franz diffusion cells. The receiving fluid consisted of Bovine serum albumin (4% w/v) in 0.1% w/v sodium azide in Phospate Buffer Saline and was heated at 37° C. in order to obtain 32° C. at the skin surface. The cream formulation was applied on the donor side at a 10 mg dose, i.e. 5 mg/cm^2. The samples taken at the following time points: t=0, 3, 6, 9 and 24 h. The receiver samples were then assayed using a method based upon protein precipitation with acetonitrile followed by LC/MS/MS analysis. The percutaneous flux (in ng/cm^2/hr) was determined using the individual API (in a multiple composition) that had permeated into the receiver compartment over 24 hrs per cm^2.

Data set [2] concerns Mouse CD4+ cells. In words: Th17 cell differentiation assay (IL-17 ELISA). Type of data set: cell-based. To be noted: table with percutaneous study. As for the experimental part: Mouse CD4+cells were purified using the CD4+ T Cell Isolation II Kit according to manufacturer's instructions (Miltenyi Biotec). 96 well plates were pre-coated with anti-mCD3 antibody. Un-coated wells were used as controls. CD4+ Cells were resuspended in RPMI 1640 complete medium and were added to the 96-well plates. Cytokine cocktail and the compound were then added to the wells. Antibodies and cytokines (all from R&D Systems) used in the assay were selected from the following: anti-mCD3; anti-mCD28; anti-mIFNγ; anti-mIL4; mIL-6; mIL-23; mIL-1β; hTGF-β1. The culture was incubated at 37° C. for 3 days and supernatants were collected for ELISA. The IL-17 ELISAs were performed according to manufacturer's instructions (R&D Systems). The results were analyzed using Prism software with non-linear regression to determine pIC50.

The target in data set [3] is T1, RORγ (Homo sapiens, UniProt P51449).
T1 construct: expressed in transfected cells
T1 sequence (P51449 1-497 isoform P51449-2): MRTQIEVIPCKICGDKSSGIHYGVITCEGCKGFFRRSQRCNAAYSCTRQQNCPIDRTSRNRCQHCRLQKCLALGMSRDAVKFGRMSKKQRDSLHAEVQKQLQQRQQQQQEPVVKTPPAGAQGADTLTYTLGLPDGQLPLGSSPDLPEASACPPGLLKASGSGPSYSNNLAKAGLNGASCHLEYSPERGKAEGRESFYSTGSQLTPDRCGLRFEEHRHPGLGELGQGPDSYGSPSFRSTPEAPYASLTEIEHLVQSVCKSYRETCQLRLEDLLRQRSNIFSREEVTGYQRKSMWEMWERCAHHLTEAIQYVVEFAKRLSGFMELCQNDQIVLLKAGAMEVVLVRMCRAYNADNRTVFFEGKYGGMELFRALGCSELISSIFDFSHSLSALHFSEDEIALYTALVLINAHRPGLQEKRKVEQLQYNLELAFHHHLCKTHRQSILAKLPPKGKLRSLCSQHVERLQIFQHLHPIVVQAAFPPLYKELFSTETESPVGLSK
As to the kind of experiment: Jurkat cell luciferase assay (human IL17 promoter reporter, RORγt overexpression). Type of data set: cell-based. Conditions: mean pIC50; detection limit of the assay 5. From the text: RORγ is known to bind to a CNS (conserved non-coding sequences) enhancer element in the IL17 promoter. In this assay, RORγ activity is indirectly assessed using a luciferase reporter construct which contains the human IL17 promoter having the RORγ-specific CNS enhancer element. Inhibition of RORγ activity by a compound will result in a decrease in luciferase activity of Jurkat cells transfected with the reporter construct.
. For the 1.1 Kb fragment, PCR was used to amplify human IL17 proximal promoter region from genomic DNA of 293T cells using primers as follows: forward primer, 5′-[…]-3′ (SEQ ID NO. 4) (Xhol site is underlined) and reverse primer, 5′-[…]-3′ SEQ ID NO. 5) (HindIII site is underlined). The 1.1 kb DNA bands were excised, purified, and inserted into pMD19-T Simple Vector (Takara). After DNA sequencing confirmation, the 1.1 kb DNA was digested with XhoI and HindIII and inserted into XhoI/HindIII sites of pGL4.31[luc2P/GAL4UAS/Hygro] (Promega) to generate the pIL17-lkb-luc reporter construct. For the 1.9 Kb fragment, PCR was used to amplify human IL17 promoter region from genomic DNA using primers as follows: forward primer, 5′-[…]-3′ (SEQ ID NO. 6) (KpnI site is underlined) and reverse primer, 5′-[…]-3′ (SEQ ID NO. 7)(XhoI site is underlined). The resulting 1.9 kb DNA bands were excised, gel purified, and cloned into a pMD19-T Simple Vector (Takara). […] The 1.9 kb DNA fragment was released by double digestion with KpnI and XhoI and inserted into pIL17-lkb-luc to generate the luciferase reporter plasmid “pIL17-3kb-CNS-luc.” To overexpress RORγt, the full-length cDNA of human RORγt identical to the published sequence NM13 001001523 was cloned into pcDNA3.1 at the KpnI-NotI cloning sites to generate the RORγt overexpression plasmid “CDNA3.1DhRORγ49-8”. […]
Compounds were dissolved in DMSO at three concentrations, 10 mM, 400 uM and 16 uM, and were dispensed into 384-wells assay plate at 40 nl, 12.5 nl, 5 nl respectively. The volume was adjusted with pure DMSO to a give a final uniform volume of 40 nl Jurkat cells described above were counted and centrifuged. […]

Where [4] appears, read: read-out: Th17 cell differentiation assay IC50.
Where [5] appears, read: read-out: Th17 cell differentiation assay pIC50 (converted).

Read-outs that look alike come from different tables or passages of the source.

Take `Cc1ccc(C(=O)Nc2cc(F)cc(CN3CCN(C(=O)CC4CCC4)[C@@H](C)C3)c2C)cn1` [Example 163, (S)-N-(3-((4-(2-cyclobutylacetyl)-3-methylpiperazin-1-yl)methyl)-5-fluoro-2-methylphenyl)-6-methylnicotinamide]: in data set [1], the “Flux over 24 hrs” value was determined as 7.73 ng/cm^2/hr. For the same molecule, the values for the IC50 in data set [2] (setting [4]) and in data set [2] (setting [5]) were 0.0114 mg/L and 0.0251 µM, respectively.

On to `Cc1cnc(C(=O)Nc2cc(F)cc(CN3CCN(C(=O)C4CCCC4)[C@@H](C)C3)c2C)cn1` [Example 36, (S)-N-(3-((4-(cyclopentanecarbonyl)-3-methylpiperazin-1-yl)methyl)-5-fluoro-2-methylphenyl)-5-methylpyrazine-2-carboxamide], for which, in data set [3], the IC50 was more than 10 µM.

Turning to `Cc1ccc(C(=O)Nc2cc(F)cc(CN3CCN(C(=O)C4CC(C)(C)C4)[C@@H](C)C3)c2C)cn1` [Example 164, (S)-N-(3-((4-(3,3-dimethylcyclobutanecarbonyl)-3-methylpiperazin-1-yl)methyl)-5-fluoro-2-methylphenyl)-6-methylnicotinamide], in data set [1], the “Flux over 24 hrs” value is reported as 3.12 ng/cm^2/hr. The results for the IC50 in data set [2] (setting [4]) and in data set [2] (setting [5]) were 0.0093 mg/L and 0.02 µM, respectively.

Values taken from patent US10005731B2, “Modulators of the retinoid-related orphan receptor gamma (ROR-gamma) for use in the treatment of autoimmune and inflammatory diseases” (Glaxo Group Limited, priority 2012, dated 2018).
